Experimental data as given in US20110112184A1, “COMPOUNDS WITH GLYCIDIC STRUCTURE ACTIVE IN THE THERAPY OF SYSTEMIC AND LOCAL INFLAMMATION” (priority 2008, published 2011).

Assays:
[1] = Stability of compound 4 towards pH variations by 1H-NMR; type: physicochemical; settings: D2O, room temperature, spectra at 10 min, 4.5 h and 24 h
Method: Stability of compound 4 towards pH variations is evaluated through ^1H-NMR analysis. Two samples are prepared, one in acidic conditions and one in basic conditions; the first is prepared by dissolving 2.3 mg in 550 μl of D2O and adjusting to pH 1.2 through DCl addition, while the second is prepared by dissolving 3 mg of compound 4 in 550 μl of D2O and adjusting to pH 12.5 through NaOD addition. The two samples are kept at room temperature and ^1H-NMR spectra thereof are recorded at time 10 min, 4.5 h and 24 h.
FIG. 1. ^1H-NMR spectra of compound 4 at pH 12.5 and at pH 1.2.

[2] = test system: LPS/GalN-induced shock in FVB mice; experiment: LPS/galactosamine-induced shock in mice; type: in vivo; settings: LPS 5 μg/mouse + GalN 40 mg/mouse i.p., compound 4 25 μg/kg (0.5 μg/mouse) p.o.
Method: FIG. 4. Protection afforded by comp 4 in LPS-induced shock in mice. Untr=untreated; LPSGalN=Mice treated with LPS/GalN alone; LPSGalN Comp 4=Mice treated with LPS/GalN+Comp 4=Mice treated with Comp 4 alone.
Compound 4 was tested in LPS/galactosamine (GalN)-induced shock in mice. LPS shock was induced in 2-months old FVB mice through intraperitoneal (i.p). injection of 5 μg LPS/mouse (LPS from Salmonella enterica abortus equi) and 40 mg/mouse GalN (LPS/GalN).

DSS-treated FVB mice = experiment: Acute colitis (acute Crohn-like disease) induced by DSS 2% in mice; type: in vivo; settings: acute model
Method: FIG. 5. TNF-α levels in mice treated with DSS alone or DSS+comp 4. Untr=Untreated; DSS=Mice treated with DSS alone; DSS comp 4=Mice treated with DSS and comp 4;=Mice treated comp 4 alone.
In mice induced for acute Crohn's disease, modifications of epithelial permeability of the intestine were determined by measuring intestinal transmembrane resistance using the Ussing chamber. For this purpose, 2-months old FVB mice were administered dextran sulfate sodium (DSS) 2% in the drinking water for 7 days (Wirtz et al, 2007). […] Eventually, the serum levels of the inflammatory cytokine TNF-α were measured in mice treated with DSS alone or with DSS+4.

DSS-treated mice = experiment: Chronic Crohn-like disease induced by 4 cycles of DSS 2% in mice; type: in vivo; settings: chronic model
Description: FIG. 6. Colon length in untreated mice or mice treated with DSS+comp 4. Untr=Untreated; DSS=Mice treated with DSS alone; DSS comp 4=Mice treated with DSS and comp 4;=Mice treated comp 4 alone.
FIG. 7. TNF-α content in the protein extract of the colon of untreated mice or mice treated with DSS+comp 4. Untr=Protein extract from colon of untreated mice; DSS=Protein extract from colon of mice treated with DSS alone; DSS comp 4=Protein extract from colon of mice treated with DSS+comp 4;=Protein extract from colon of mice treated with comp 4 alone.
Chronic Crohn-like disease was induced in mice by administration of DSS 2% for 4 cycles, with each cycle consisting in exposition to DSS 2% for 7 days, followed by 14 days of regular water. In mice that were administered also compound 4, last exposition of DSS was followed by p.o. administration of compound 4 at 25 μg/kg, 4 times/week for 3 weeks.
One hallmark of the chronic Crohn's disease model is the shortening of the colon.
Another parameter that was measured in this setting was the TNF-α content in the protein extract of the colon of mice. DSS 2% alone led to a dramatic increase of the TNF-α levels in the protein extract, while co-treatment with compound 4 led to normalization of these levels.

Caco-2 enterocytes = experiment: Doxorubicin-induced injury of Caco-2 enterocytes (ROS in culture medium); type: cell-based; settings: Caco-2 monolayer, 3 μM doxorubicin + compound 4
Method: FIG. 10. Measurement of ROS in the cell culture medium of untreated enterocytes or enterocytes treated with doxorubicin+compound 4. Ctrl=Untreated (control) cells; Doxo=Cells treated with doxorubicin alone; Doxo comp 4=Cells treated with doxorubicin and compound 4.
Compound 4 has shown protective efficacy also in an in vitro model of chemotherapy-induced injury of enterocytes. In this model, a monolayer of Caco-2 enterocytes was treated with 3 μM doxorubicin alone or doxorubicin and 4.

[3] = test system: mice treated with doxorubicin; experiment: Acute doxorubicin-induced enterocyte injury in mice; type: in vivo; settings: doxorubicin 27 mg/kg i.p. + compound 4 25 μg/kg orally; 72 h
Method: FIG. 11. Serum levels of KC in untreated mice or mice submitted to acute treatment with doxorubicin or chronic treatment with doxorubicin and 5-fluorouracil. Untr=Untreated; Doxo 27 mg=Mice submitted to acute treatment with doxorubicin; Doxo 27 mg comp 4=Mice submitted to acute treatment with doxorubicin and concomitant p.o. administration of comp 4; Doxo cron=Mice submitted to chronic treatment with doxorubicin and 5-fluoruracil; Doxo cron comp 4=Mice submitted to chronic treatment with doxorubicin and 5-fluoruracil and concomitant p.o. administration of compound 4.
FIG. 12. Histology of the epithelium of the small intestine in mice after acute treatment with doxorubicin (DOXO) or acute treatment with doxorubicin and concomitant administration of compound 4 (comp 4+DOXO).
For the first model, doxorubicin was administered to mice by intraperitoneal injection (27 mg/kg). Some of the mice were administered at the same time compound 4 (25 μg/kg orally). Recovery of the blood for the determination of circulating KC levels and subsequent sacrifice of the animals were performed at 72 h after treatment.

- Stability towards pH (degradation by 1H-NMR) ([1]; pH 1.2 (DCl)): no degradation
- Stability towards pH (degradation by 1H-NMR) ([1]; pH 12.5 (NaOD)): no degradation
SMILES: CN(C)c1cccc2c(S(=O)(=O)NCC[C@H]3O[C@H](CO)[C@@H](O)[C@H](O)[C@H]3O)cccc12 [Compound 4, 5-(Dimethylamino)-N-[2′-(α-D-glucopyranosyl)ethyl]-1-naphthalenesulphonamide]
- Protection against LPS/GalN-induced shock [2]: full protection
- Serum levels of TNF-α (increase induced by DSS 2%) (DSS-treated FVB mice; DSS 2% + compound 4): strongly inhibited
- Intestinal transmembrane resistance (DSS-treated FVB mice; DSS 2% in drinking water 7 days + compound 4, Ussing chamber): 49 Ω × cm^2
- Intestinal transmembrane resistance (DSS-treated mice; 4 cycles DSS 2% + compound 4 25 μg/kg p.o. 4 times/week for 3 weeks): 47 Ω × cm^2
- TNF-α content in the protein extract of the colon (DSS-treated mice; DSS 2% + compound 4): normalization
- mean length of the colon (DSS-treated mice; DSS 2% + compound 4): 11.55 cm
- reactive oxygen species (ROS) in the cell culture medium (Caco-2 enterocytes): complete inhibition
- Histology of the epithelium of the small intestine [3]: normal morphology
- circulating KC levels [3]: strongly reduced
